For 22 compounds, Efficacy and IC50 results are on record in ChEMBL document CHEMBL1131477, “Synthesis and biological activity of a novel series of nonsteroidal, peripherally selective androgen receptor antagonists derived from 1,2-dihydropyridono[5,6-g]quinolines” (J Med Chem, 1998).

Where only a bound is given, the exact number is not on record here.

The target in test [1] is T1, Progesterone receptor (Homo sapiens) (UniProt P06401).
T1 sequence (whole entry): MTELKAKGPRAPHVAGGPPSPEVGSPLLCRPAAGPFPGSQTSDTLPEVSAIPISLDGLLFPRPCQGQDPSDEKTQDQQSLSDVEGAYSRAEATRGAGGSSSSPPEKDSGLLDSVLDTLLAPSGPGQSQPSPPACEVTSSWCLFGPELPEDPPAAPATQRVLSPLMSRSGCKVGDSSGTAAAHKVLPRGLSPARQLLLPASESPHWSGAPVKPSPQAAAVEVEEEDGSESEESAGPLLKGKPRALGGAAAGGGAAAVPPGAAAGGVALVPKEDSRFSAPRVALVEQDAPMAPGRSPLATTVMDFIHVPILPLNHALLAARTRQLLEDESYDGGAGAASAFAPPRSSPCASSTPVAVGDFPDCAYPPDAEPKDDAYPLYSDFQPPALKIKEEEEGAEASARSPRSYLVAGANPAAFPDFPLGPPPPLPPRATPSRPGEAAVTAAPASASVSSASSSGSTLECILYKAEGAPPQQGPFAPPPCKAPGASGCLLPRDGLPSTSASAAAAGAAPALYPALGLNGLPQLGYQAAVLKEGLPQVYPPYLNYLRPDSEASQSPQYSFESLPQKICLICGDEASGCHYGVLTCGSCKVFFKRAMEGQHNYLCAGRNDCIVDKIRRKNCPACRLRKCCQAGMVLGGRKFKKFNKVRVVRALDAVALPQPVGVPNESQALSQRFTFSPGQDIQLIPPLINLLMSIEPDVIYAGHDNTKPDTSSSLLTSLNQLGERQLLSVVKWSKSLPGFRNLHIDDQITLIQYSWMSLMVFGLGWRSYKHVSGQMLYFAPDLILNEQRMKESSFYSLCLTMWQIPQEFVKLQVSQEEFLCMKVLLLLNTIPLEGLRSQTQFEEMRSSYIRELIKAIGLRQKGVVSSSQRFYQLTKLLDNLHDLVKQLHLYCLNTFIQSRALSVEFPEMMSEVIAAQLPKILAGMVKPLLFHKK
Briefly: Efficacy as a function of maximal inhibition against human progesterone receptor B (hPR-B).

The next test concerns the target T2, Progesterone receptor (Homo sapiens, UniProt P06401).
T2 sequence (P06401 whole entry): T1 sequence (whole entry)
Briefly: Antagonistic activity against human progesterone receptor B (hPR-B) in co-transfected CV-1 cells. In kind it is functional, cell-based.

Broadly, the IC50 is the concentration that inhibits the measured activity by half. Compound `C[C@@H]1c2cc3c(C(F)(F)F)cc(O)nc3cc2NC(C)(C)[C@H]1C` came in with an Efficacy in test [1] of 92%. In addition, the IC50 against Progesterone receptor was determined as 735 nM.

`CC1=CC(C)(C)Nc2cc3nc(O)cc(C)c3cc21` came in with an Efficacy in test [1] of 83%.

In the case of `CCCC1(C)CCc2cc3c(C(F)(F)F)cc(O)nc3cc2N1` (stereo not drawn), the Efficacy in test [1] amounted to 86%.

Regarding `CC1(C)CCc2cc3c(C(F)(F)F)cc(O)nc3cc2N1`, the Efficacy in test [1] worked out at 80%.

Consider `CC1=CC(C)(C)Nc2cc3nc(O)cc(C(F)(F)F)c3cc21`, for which the Efficacy in test [1] was 62%.

In turn, `CC(=O)O[C@]1(C(C)=O)CC[C@H]2[C@@H]3C=C(Cl)C4=CC(=O)[C@@H]5C[C@@H]5[C@]4(C)[C@H]3CC[C@@]21C` gave an Efficacy in test [1] of 12%.

Consider `C[C@H]1c2cc3c(C(F)(F)F)cc(O)nc3cc2NC(C)(C)[C@H]1C`, for which the Efficacy in test [1] amounted to 95%. Further, the IC50 against Progesterone receptor turned out to be 310 nM.

`Cn1c(=O)cc(C(F)(F)F)c2cc3c(cc21)N1CCCC1(C)CC3` (stereo not drawn) returned an Efficacy in test [1] of 84%. In addition, it took 398 nM to reach half-maximal inhibition against Progesterone receptor (IC50).

`CC1Cc2cc3c(C(F)(F)F)cc(O)nc3cc2NC1(C)C` (stereo not drawn) came in with an Efficacy in test [1] of 89%.

As to `CC1=C(C)C(C)(C)Nc2cc3nc(O)cc(C(F)(F)F)c3cc21`, the Efficacy in test [1] amounted to 65%.

In test [1], `CC12CCCN1c1cc3nc(O)cc(C(F)(F)F)c3cc1CC2` (stereo not drawn) had an Efficacy of 11%. The compound also returned an IC50 against Progesterone receptor of more than 10000 nM.

On to `CC1=CC(C)(C)Nc2cc3[nH]c(=O)cc(C(F)(F)F)c3cc21`, for which half-maximal inhibition on Progesterone receptor (IC50) required 49 nM.

In turn, `CCC1(C)CCc2cc3c(C(F)(F)F)cc(O)nc3cc2N1` (stereo not drawn) showed an Efficacy in test [1] of 91%.

In turn, `CCC1Cc2cc3c(C(F)(F)F)cc(O)nc3cc2NC1(C)C` (stereo not drawn) gave an Efficacy in test [1] of 82%.

In the case of `Cc1c2c(cc3c(C(F)(F)F)cc(O)nc13)C(C)CC(C)(C)N2` (stereo not drawn), in test [1], the Efficacy was determined as 74%.

As for `CC(C)(O)C(=O)Nc1ccc([N+](=O)[O-])c(C(F)(F)F)c1`, the Efficacy in test [1] was found to be 90%.

In test [1], `CC1(C)Cc2cc3c(C(F)(F)F)cc(O)nc3cc2NC1(C)C` displayed an Efficacy of 98%.

For the compound `CC1(C)CCc2cc3c(C(F)(F)F)cc(=O)[nH]c3cc2N1`, the IC50 against Progesterone receptor worked out at 330 nM.

For the compound `CC1=CC(C)(C)Nc2c1cc1c(C(F)(F)F)cc(O)nc1c2C`, in test [1], the Efficacy was 88%.

In test [1], `CC1CC(C)(C)Nc2cc3nc(O)cc(C(F)(F)F)c3cc21` (stereo not drawn) registered an Efficacy of 86%. For the same compound, the IC50 against Progesterone receptor was found to be 231 nM.

On to `CCC1(C)CCc2cc3c(C(F)(F)F)cc(=O)[nH]c3cc2N1` (stereo not drawn), for which, on Progesterone receptor, the IC50 is 543 nM.

As for `CC(O)(CS(=O)(=O)c1ccc(F)cc1)C(=O)Nc1ccc(C#N)c(C(F)(F)F)c1` (stereo not drawn) [BICALUTAMIDE], the Efficacy in test [1] came to 88%. In addition, the IC50 against Progesterone receptor was determined as 1820 nM.
